# Conditions: buffer; pH 7.4; 200.0 µM
row,Compound,solubility kinetic [µg/mL]
1,CC1CN(S(=O)(=O)c2cccc(C(=O)OCC(=O)N3CCCCCC3)c2)CC(C)O1 (stereo unspecified),12.9
2,Nc1nc(CSc2ccc(Cl)cc2)nc(N2CCCCC2)n1,5.6
3,CCCCC(=O)Nc1cnc(NC(=O)c2ccco2)cc1C,> 45.2
4,CN(C)Cc1c(-c2ccc(Cl)cc2)nc2ccccn12,40.4
5,CCOC(=O)c1cnc(SC)nc1N1CCCC1,> 40.1
6,COC(=O)c1ccc(C(=O)OC)c(NC(=O)/C=C/C(=O)O)c1,> 46.1
7,CC(C)Oc1ccc(C(=O)CCN2CCOCC2)cc1,32.8
8,Cc1cc(C(=O)NC2CCCCCC2)c2ccccc2n1,24.2
9,O=C1CSC(=Nc2ccc(Cl)cc2)N1Cc1ccco1,10.9
10,Cl.Clc1ccc(CN2CCNCC2)cc1,22.6
11,Fc1cccc(CNC2CCN(CCc3ccccc3)CC2)c1,33.7
12,O=C(COC(=O)C1(c2ccccc2)CCCC1)N1CCNC1=O,> 47.5
13,Cn1c(N2CCOCC2)c(C#N)c2ccccc21,17
14,CN(c1ccccc1)S(=O)(=O)c1ccc(C(=O)N2CCN(c3ccccc3F)CC2)cc1,3.6
15,CC(C)(O)C(=O)NNC(=S)NCc1ccco1,> 38.6
16,O=C(Oc1ccc(Oc2ccccc2)cc1)N1CCC(O)CC1,34.9
17,Cc1ccc2cccc(OCc3ccc(Br)cc3)c2n1,0.9
18,COc1ccc(CCNC(=O)COC(=O)c2ccc(S(=O)(=O)N3CCCC3)cc2)cc1OC,7.2
19,O=C(Nc1ccc(S(=O)(=O)N2CCCC2)cc1)C1CCCCC1,13.7
20,O=C(NC1CCN(Cc2cccc([N+](=O)[O-])c2)CC1)c1ccccc1,32.4
21,COC(=O)c1scc(C)c1NS(=O)(=O)c1ccc(NC(C)=O)cc1,> 55.3

row,Compound,solubility kinetic [µg/mL]
1,C=CCn1c(COc2ccccc2OC)nc2ccccc21,10.2
2,COc1ccccc1C(=O)Nc1ccc(Br)cc1C,< 0.7
3,CCn1c(CCNC(=O)c2ccco2)nc2ccccc21,40.5
4,Cn1c(=O)c2c(ncn2CCOc2ccc(F)cc2)n(C)c1=O,13.9
5,CN[C@H](CC(=O)O)C(=O)O,> 22.1
6,O=C(O)CC(Sc1n[nH]c(=S)s1)C(=O)O (stereo unspecified),> 39.9
7,Cc1cc(=O)n(C)c2ccccc12,> 26
8,N#Cc1ccccc1S(=O)(=O)Nc1ccc2c(c1)C(=O)OC2,43.4
9,CN(C)C(=O)Oc1ccc(Br)c2ccccc12,35
10,CC1Oc2ccccc2N(Cc2cccc(F)c2)C1=O (stereo unspecified),18.6
11,CSc1ncccc1C(=O)OCC(=O)Nc1ccc(Cl)cn1,3.6
12,O=C(/C=C/c1ccccc1)Nc1cccc(S(=O)(=O)Nc2ccccc2F)c1,1
13,COc1ccc(-c2noc(CCC(=O)NC3CCCC3)n2)cc1,27.2
14,COc1ccccc1OCC(O)CNCc1ccc2c(c1)OCO2 (stereo unspecified),47.4
15,Cn1cnc([N+](=O)[O-])c1NCc1ccccc1,33.5
16,Br.Cn1c(=N)n(CC(=O)c2ccccc2)c2ccccc21,> 51.9
17,CC1CCN(S(=O)(=O)c2ccc3c(c2)n(C)c(=O)n3C)CC1,> 48.5
18,CC(C)(CN)CC(=O)O.Cl,23.2
19,CC1CCN(c2ccc3nnc(CCC(=O)NC(C)C)n3n2)CC1,> 49.6
20,CCN(c1ccccc1)S(=O)(=O)c1ccc(C(=O)NCC(=O)Nc2ccc(F)c(F)c2F)cc1,2.8
21,Nc1nc2ccc(C(=O)Nc3ccc(N4CCOCC4)cc3)cc2s1,8.7

row,Compound,solubility kinetic [µg/mL]
1,Cc1ccnc(NC(=O)c2cccc(S(=O)(=O)N3CCCC3)c2)c1,43.1
2,CCOc1ccccc1N1CCN(C(=O)c2ccc3nc(N)sc3c2)CC1,7.5
3,Cc1cc(C(=O)COC(=O)c2cccc(NS(C)(=O)=O)c2)c(C)n1CC1CCCO1 (stereo unspecified),43.5
4,Cc1cc(Cl)ccc1NC(=S)NC1CCCC1,18.1
5,CC(NC(=O)C(=O)Nc1nccs1)c1ccccc1 (stereo unspecified),35.4
6,Cc1cccc(NC2=NCCCS2)c1,> 30.9
7,O=C(NC1CCN(Cc2ccc(F)cc2)CC1)c1ccccc1,40.7
8,Cc1ccc(SCC(=O)O/N=C(\N)c2ccncc2)cc1,29.4
9,COc1ccc(/C=C(\C#N)C(=O)Nc2cccc(C)n2)cc1,0.4
10,CSc1nc2ccc(NC(=O)c3ccc(=O)[nH]c3)cc2s1,16.1
11,OCC1(CO)COC(CCc2ccccc2)=N1,> 35.3
12,O=C(COc1ccc(F)cc1Br)NCC1COc2ccccc2O1 (stereo unspecified),17.5
13,Cn1ccnc1Sc1ccc(C(N)=O)cc1[N+](=O)[O-],38.7
14,O=C(Nc1ccccc1C(=O)N1CCCCC1)NC1CCCCC1,> 49.4
15,COCCCNC(=O)c1ccc(NC(C)=O)cc1,> 37.5
16,CC(CN1CCOCC1)OC(=O)Cc1ccccc1.Cl (stereo unspecified),33.3
17,OCCN1c2ccccc2CCc2ccccc21,21.5
18,NS(=O)(=O)c1ccc(NC(=S)N2CCCC2)cc1,> 42.8
19,O=C1/C(=C/c2ccncc2)N=C2CCCCCN12,33.9

# From PubChem BioAssay AID1996
